US12030878B2 (BRISTOL-MYERS SQUIBB COMPANY, priority 2017, dated 2024)

Legend:
Type in all cases: cell-based
[1] = target: T1, human TLR8 (Homo sapiens, UniProt Q9NR97); assay: TLR8 inhibition reporter assay (HEK-Blue SEAP); settings: HEK-Blue cells overexpressing human TLR8, stimulated with R848 15.9 μM, 22 hour incubation
T1 construct: host or cells: HEK-Blue cells
T1 sequence (Q9NR97 27-1041): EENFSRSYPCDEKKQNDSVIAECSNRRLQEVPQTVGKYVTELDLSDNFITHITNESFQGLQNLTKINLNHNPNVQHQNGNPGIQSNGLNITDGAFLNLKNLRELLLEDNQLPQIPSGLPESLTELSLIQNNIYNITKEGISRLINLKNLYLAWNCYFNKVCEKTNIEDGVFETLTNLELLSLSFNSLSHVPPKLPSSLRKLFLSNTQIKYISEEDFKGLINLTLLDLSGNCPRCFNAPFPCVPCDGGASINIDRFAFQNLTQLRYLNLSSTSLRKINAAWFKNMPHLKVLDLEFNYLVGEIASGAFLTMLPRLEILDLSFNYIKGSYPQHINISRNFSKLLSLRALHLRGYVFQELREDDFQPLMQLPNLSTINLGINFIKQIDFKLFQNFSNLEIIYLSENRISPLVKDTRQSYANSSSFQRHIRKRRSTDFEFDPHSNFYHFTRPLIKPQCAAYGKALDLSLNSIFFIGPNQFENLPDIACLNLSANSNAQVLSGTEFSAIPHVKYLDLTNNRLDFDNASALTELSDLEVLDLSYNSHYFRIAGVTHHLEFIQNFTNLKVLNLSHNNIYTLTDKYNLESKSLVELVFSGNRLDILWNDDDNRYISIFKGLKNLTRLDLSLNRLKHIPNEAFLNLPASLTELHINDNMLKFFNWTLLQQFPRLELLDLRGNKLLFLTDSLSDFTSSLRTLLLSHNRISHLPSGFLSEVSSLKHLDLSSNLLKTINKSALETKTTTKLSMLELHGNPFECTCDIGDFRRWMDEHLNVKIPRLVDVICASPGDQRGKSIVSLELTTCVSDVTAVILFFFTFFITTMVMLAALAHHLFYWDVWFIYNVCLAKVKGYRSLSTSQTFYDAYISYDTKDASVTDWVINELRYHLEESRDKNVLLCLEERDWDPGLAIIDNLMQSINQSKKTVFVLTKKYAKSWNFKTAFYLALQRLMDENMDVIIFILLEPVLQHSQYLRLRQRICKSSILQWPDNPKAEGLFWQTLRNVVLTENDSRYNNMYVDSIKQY
Summary of the method: (§1)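 SEAP read-out via HEK-Blue Detection medium after 22 h at 37 °C; percent inhibition relative to agonist-plus-DMSO and known-inhibitor wells. Agonists: TLR7 gardiquimod 7.5 μM, TLR8 R848 15.9 μM, TLR9 ODN2006 5 nM. Dose range 0.05 nM–50 μM, 30 min compound pre-treatment at RT.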

[2] = target: T2, human TLR7 (Homo sapiens, UniProt Q9NYK1); assay: TLR7 inhibition reporter assay (HEK-Blue SEAP); settings: HEK-Blue cells overexpressing human TLR7, stimulated with gardiquimod 7.5 μM, 22 hour incubation
T2 construct: host or cells: HEK-Blue cells
T2 sequence (Q9NYK1 27-1049): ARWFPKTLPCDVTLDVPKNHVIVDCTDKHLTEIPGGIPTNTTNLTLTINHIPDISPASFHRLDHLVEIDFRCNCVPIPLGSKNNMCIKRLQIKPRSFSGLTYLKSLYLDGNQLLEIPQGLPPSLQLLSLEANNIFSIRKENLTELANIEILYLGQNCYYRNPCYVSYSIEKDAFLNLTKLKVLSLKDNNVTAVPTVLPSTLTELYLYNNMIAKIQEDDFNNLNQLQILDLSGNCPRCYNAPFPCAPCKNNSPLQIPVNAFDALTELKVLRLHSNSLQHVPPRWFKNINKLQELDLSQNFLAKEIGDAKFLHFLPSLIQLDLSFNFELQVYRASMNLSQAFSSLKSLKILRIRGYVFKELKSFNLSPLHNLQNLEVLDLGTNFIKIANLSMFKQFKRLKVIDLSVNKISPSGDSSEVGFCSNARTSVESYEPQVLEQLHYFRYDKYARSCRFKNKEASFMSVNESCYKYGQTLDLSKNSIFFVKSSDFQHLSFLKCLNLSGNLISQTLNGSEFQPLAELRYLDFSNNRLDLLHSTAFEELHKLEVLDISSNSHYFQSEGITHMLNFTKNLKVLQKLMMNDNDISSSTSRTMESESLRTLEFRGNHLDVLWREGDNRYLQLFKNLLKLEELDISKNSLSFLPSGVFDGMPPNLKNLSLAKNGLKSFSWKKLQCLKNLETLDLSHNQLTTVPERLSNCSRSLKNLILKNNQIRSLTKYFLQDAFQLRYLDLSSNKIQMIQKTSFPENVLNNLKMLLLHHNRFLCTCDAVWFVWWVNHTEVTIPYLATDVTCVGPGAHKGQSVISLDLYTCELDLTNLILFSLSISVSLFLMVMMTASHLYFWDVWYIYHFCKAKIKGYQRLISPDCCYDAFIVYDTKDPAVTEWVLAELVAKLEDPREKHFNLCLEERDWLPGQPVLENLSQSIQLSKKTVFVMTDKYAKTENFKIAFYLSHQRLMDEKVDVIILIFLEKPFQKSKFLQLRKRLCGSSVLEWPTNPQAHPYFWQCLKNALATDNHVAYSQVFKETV
Summary of the method: as §1

[3] = target: T3, human TLR9 (Homo sapiens, UniProt Q9NR96); assay: TLR9 inhibition reporter assay (HEK-Blue SEAP); settings: HEK-Blue cells overexpressing human TLR9, stimulated with ODN2006 5 nM, 22 hour incubation
T3 construct: host or cells: HEK-Blue cells
T3 sequence (Q9NR96 26-1032): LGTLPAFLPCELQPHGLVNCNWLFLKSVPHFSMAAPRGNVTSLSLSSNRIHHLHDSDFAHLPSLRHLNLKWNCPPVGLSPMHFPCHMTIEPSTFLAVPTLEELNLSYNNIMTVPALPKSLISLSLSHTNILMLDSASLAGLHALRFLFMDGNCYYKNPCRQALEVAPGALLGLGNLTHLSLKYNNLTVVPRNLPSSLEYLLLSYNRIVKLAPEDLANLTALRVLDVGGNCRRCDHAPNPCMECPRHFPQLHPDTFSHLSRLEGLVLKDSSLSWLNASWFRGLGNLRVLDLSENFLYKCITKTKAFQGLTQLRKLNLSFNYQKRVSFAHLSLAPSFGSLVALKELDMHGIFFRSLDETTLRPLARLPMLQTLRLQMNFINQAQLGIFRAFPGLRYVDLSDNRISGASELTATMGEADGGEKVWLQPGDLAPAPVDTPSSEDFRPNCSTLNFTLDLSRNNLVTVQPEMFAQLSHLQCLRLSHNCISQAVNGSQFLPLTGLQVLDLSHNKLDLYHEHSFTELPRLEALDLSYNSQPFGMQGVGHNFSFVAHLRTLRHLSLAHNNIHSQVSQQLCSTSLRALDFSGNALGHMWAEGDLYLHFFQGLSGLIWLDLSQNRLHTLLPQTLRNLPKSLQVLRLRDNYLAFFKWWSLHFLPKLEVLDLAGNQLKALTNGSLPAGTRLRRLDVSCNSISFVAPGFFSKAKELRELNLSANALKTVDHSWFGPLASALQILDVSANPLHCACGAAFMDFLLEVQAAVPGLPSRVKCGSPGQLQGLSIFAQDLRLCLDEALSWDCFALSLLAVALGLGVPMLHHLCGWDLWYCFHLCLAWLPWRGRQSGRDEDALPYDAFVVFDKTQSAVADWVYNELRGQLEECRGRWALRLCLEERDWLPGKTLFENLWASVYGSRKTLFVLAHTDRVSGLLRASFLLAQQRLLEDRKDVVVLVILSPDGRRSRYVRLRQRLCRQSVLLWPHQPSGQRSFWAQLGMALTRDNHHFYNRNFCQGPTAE
Summary of the method: as §1

Cc1cc(-c2[nH]c3ccc(OCC4CN(C(=O)CN(C)C)C4)cc3c2C(C)C)cn2ncnc12 [Example 107, 2-(dimethylamino)-1-(3-(((3-isopropyl-2-(8-methyl-[1,2,4]triazolo[1,5-a]pyridin-6-yl)-1H-indol-5-yl)oxy)methyl)azetidin-1-yl) ethan-1-one]
IC50 [1]: 0.0094 µM | IC50 [2]: 0.0006 µM | IC50 [3]: 3.16 µM

Cc1cc(-c2[nH]c3ccc(O[C@H]4CCCN(C(=O)CN(C)C)C4)cc3c2C(C)C)cn2ncnc12 [Example 99, (S)-2-(dimethylamino)-1-(3-((3-isopropyl-2-(8-methyl-[1,2,4]triazolo[1,5-a]pyridin-6-yl)-1H-indol-5-yl)oxy)piperidin-1-yl)ethan-1-one]
IC50 [1]: 0.0252 µM | IC50 [2]: 0.0031 µM | IC50 [3]: 4.87 µM

Cc1cc(-c2[nH]c3ccc(OC4CCN(C)CC4)cc3c2C(C)C)cc(C)n1 [Example 29, 2-(2,6-dimethylpyridin-4-yl)-3-isopropyl-5-((1-methylpiperidin-4-yl)oxy)-1H-indole]
IC50 [1]: 0.0007 µM | IC50 [2]: 0.0013 µM | IC50 [3]: 0.379 µM

COc1ccc(-c2[nH]c3ccc(OCC(=O)NCCC(C)(C)O)cc3c2C(C)C)cc1OC [Example 153, 2-((2-(3,4-dimethoxyphenyl)-3-isopropyl-1H-indol-5-yl)oxy)-N-(3-hydroxy-3-methylbutyl)acetamide]
IC50 [1]: 2.53 µM | IC50 [2]: 0.461 µM | IC50 [3]: > 50 µM

Cc1cc(-c2[nH]c3ccc(OC4CCN(CCO)CC4)cc3c2C(C)C)cc(C)n1 [Example 70, 2-(4-((2-(2,6-dimethylpyridin-4-yl)-3-isopropyl-1H-indol-5-yl)oxy)piperidin-1-yl) ethan-1-ol]
IC50 [1]: 0.0015 µM | IC50 [2]: 0.0096 µM | IC50 [3]: 1.04 µM

Cc1cc(-c2[nH]c3ccc(OCC4CCNCC4)cc3c2C(C)C)ccn1 [Example 156]
IC50 [1]: 0.0032 µM | IC50 [2]: 0.0129 µM | IC50 [3]: 0.721 µM

Cc1cc(-c2[nH]c3ccc(OCC4CCNCC4)cc3c2C(C)C)cc(C)n1 [Example 6, 2-(2,6-dimethylpyridin-4-yl)-3-isopropyl-5-(piperidin-4-ylmethoxy)-1H-indole]
IC50 [1]: 0.0044 µM | IC50 [2]: 0.0018 µM | IC50 [3]: 0.406 µM

COc1ccc(-c2[nH]c3ccc(OCC4CCN(Cc5ccccc5)CC4)cc3c2C(C)C)cc1OC [Example 160, 5-((1-benzylpiperidin-4-yl)methoxy)-2-(3,4-dimethoxyphenyl)-3-isopropyl-1H-indole]
IC50 [1]: 0.128 µM | IC50 [2]: 0.275 µM | IC50 [3]: 7.57 µM

CNCCOc1ccc2[nH]c(-c3ccnc(C)c3)c(C(C)C)c2c1 [Example 172, 2-((3-isopropyl-2-(2-methylpyridin-4-yl)-1H-indol-5-yl)oxy)-N-methylethan-1-amine]
IC50 [1]: 0.0127 µM | IC50 [2]: 0.119 µM | IC50 [3]: 3.12 µM

Cc1cc(-c2[nH]c3ccc(OC4CCN(CC(C)C)CC4)cc3c2C(C)C)cn2ncnc12 [Example 77, 6-(5-((1-isobutylpiperidin-4-yl)oxy)-3-isopropyl-1H-indol-2-yl)-8-methyl-[1,2,4]triazolo[1,5-a]pyridine]
IC50 [1]: 0.0014 µM | IC50 [2]: 0.0029 µM | IC50 [3]: 2.83 µM

Cc1c(-c2[nH]c3ccc(OC4CCN(CC(=O)N(C)C)CC4)cc3c2C(C)C)cn2cnnc2c1C [Example 90, 2-(4-((2-(7,8-dimethyl-[1,2,4]triazolo[4,3-a]pyridin-6-yl)-3-isopropyl-1H-indol-5-yl)oxy)piperidin-1-yl)-N,N-dimethylacetamide]
IC50 [1]: 0.0133 µM | IC50 [2]: 0.0083 µM | IC50 [3]: 12.9 µM

Cc1cc(-c2[nH]c3ccc(OC4CCCN(CC(=O)N(C)C)C4)cc3c2C(C)C)cn(C)c1=O (stereo not drawn) [Example 84, 2-(3-((2-(1,5-dimethyl-6-oxo-1,6-dihydropyridin-3-yl)-3-isopropyl-1H-indol-5-yl)oxy)piperidin-1-yl)-N,N-dimethylacetamide]
IC50 [1]: 0.0029 µM | IC50 [2]: 0.0065 µM | IC50 [3]: 16.9 µM

COc1ccc(-c2[nH]c3ccc(OCC(=O)NC4CC[C@H]5CC[C@@H]4N5C)cc3c2C(C)C)cc1OC (stereo partly drawn) [Example 124, 2-((2-(3,4-dimethoxyphenyl)-3-isopropyl-1H-indol-5-yl)oxy)-N-((5S)-8-methyl-8-azabicyclo[3.2.1]octan-2-yl)acetamide]
IC50 [1]: 0.0512 µM | IC50 [2]: 0.227 µM | IC50 [3]: 4.03 µM

Cc1cc(-c2[nH]c3ccc(OC4CCN(C5CCN(C(C)C)CC5)CC4)cc3c2C(C)C)ccn1 [Example 195, 3-isopropyl-5-((1′-isopropyl-[1,4′-bipiperidin]-4-yl)oxy)-2-(2-methylpyridin-4-yl)-1H-indole]
IC50 [1]: 0.0006 µM | IC50 [2]: 0.006 µM | IC50 [3]: 0.058 µM

Cc1c(-c2[nH]c3ccc(OCC4CN(CC(C)(C)O)C4)cc3c2C(C)C)cn2cnnc2c1C [Example 28, 1-(3-(((2-(7,8-dimethyl-[1,2,4]triazolo[4,3-a]pyridin-6-yl)-3-isopropyl-1H-indol-5-yl)oxy)methyl)azetidin-1-yl)-2-methylpropan-2-ol]
IC50 [1]: 0.0217 µM | IC50 [2]: 0.0061 µM | IC50 [3]: 1.25 µM
